Consider one molecule from patent US20250280826A1, “PLANT GROWTH PROMOTER” (KAO CORPORATION, priority 2022, published 2025).

Test [1] has as its system soybean. As to the kind of experiment: Example 5: soybean nodule activity after application of high concentration of ascorbic acid. It counts as in vivo. The following applies: ascorbic acid dissolved in deionized water in comparison to tap water, regardless of amount of water. The text has this:
The items of the preparation of soil and sowing, the inoculation of Rhizobium, the cultivation conditions, the exudate collection method for measuring the amount of ureide nitrogen as an indicator of nodule activity, the experimental operation before quantification of exudate, the equipment and measurement method used for quantification of the amount of ureide nitrogen, and the standard products used and quantification were the same as those in Example 3, and the cultivation of soybean was carried out for 21 days.
Foliar spray treatment was carried out on day 14 after sowing. In addition to the reagents mentioned in Examples 2, 3, and 4, polyethylene glycol monolaurate and a glycerol fatty acid ester were used as nonionic surfactants. The reagents were dissolved in tap water or deionized water to prepare spraying solutions. Foliar spray was carried out only once. Assuming aerial spraying, 8 types of test plots containing a high concentration of ascorbic acid were examined (Table 6). In the test plots 2 and 3, 6.7 mL of each per plant was sprayed using a mister, and in the test plots 4 to 8, 0.125 mL of each per plant was sprayed.
The mean and the standard deviation were calculated from the data of four repeats, excluding the highest and the lowest values from the six repeats in each test plot.

Test [2] concerns Lotus japonicus. The test is described as follows: Example 8: number of pods and seed weight in Lotus japonicus. The format is in vivo. Particulars: ascorbic acid 1,500 ppm, tap water vs deionized water. How it is done:
Medium-term fertilizer effect type culture soil (Takii hydrous cell medium-term fertilizer effect type, Takii & Co., Ltd.) and vermiculite grains (Akagi-Engei Co., Ltd.) were mixed at a volume ratio of 1:1, and the soil was placed in a polypot (diameter: 6 cm, height: 5.5 cm).
The Lotus japonicus seeds used were Miyakojima MG-20 lineage. To a 2 mL microtube (Eppendorf) filled approximately ⅓ with the seeds, 1 mL of concentrated sulfuric acid (FUJIFILM Wako Pure Chemical Corporation) was added and allowed to stand for 10 minutes. After rinsing five times with tap water, the seeds were soaked for two hours. After tap water was supplied in an amount of 100 mL per pot, 3 seeds, which had undergone germination treatment, per pot were each sown at a depth of from about 1 to 2 cm from the soil surface. The number of repeats in each test plot was 8 (n=8). […]
For the preparation of the spraying solutions, BHT of the component (B) was previously dissolved in the component (C), and the components (C) and (D) were then mixed to prepare a second agent. […] The number of pods and seed weight of each plant were measured.

With `O=C1O[C@H]([C@@H](O)CO)C(O)=C1O` [ascorbic acid, (R)-3,4-dihydroxy-5-((S)-1,2-dihydroxyethyl)furan-2(5H)-one], the “nodule activity (allantoic acid in exudate)” value in test [1] is reported as “increased”. Further, the “effects on the seed weight” value in test [2] is “varied in accordance with the water quality”.
